Data set [1] is described as follows: In vivo oral bioavailability assay (mouse PK). To be noted: Balb/c mice female, IV bolus 1 mg/kg. How it is done: In Vivo Oral Bioavailability Assay (Mouse PK):
Single dose following IV bolus (1 mg/kg, 0.2 mg/mL in 1% DMSO, 99% SBE-β-CD (10% w/v) in water) and oral gavage (10 mg/kg~60 mg/kg) administration of test compound in Balb/c Mice female. The blood samples were collected at 2 min, 5 min, 10 min, 30 min, 1 hr, 2 hr, 4 hr, 8 hr and 24 hr (additional 32 hr and 48 hr for MRTX1133) after IV bolus, at 15 min, 30 min, 1 hr, 1.5 hr, 2 hr, 3 hr, 4 hr, 8 hr and 24 hr (additional 32 hr and 48 hr for MRTX1133) after PO administration. The plasma concentrations of compounds were determined with UPLC-MS/MS.

Another data set has as its system PANC-1 pERK. The data set is described as follows: Phospho-ERK 1/2 assay. Format: cell-based. To be noted: PANC-1 cells, compound incubation 3 hours, pERK normalised with GAPDH antibody staining. Here is the method:
Allow PNAC-1 cell growth in a T75 flask in DMEM and 10% 1 fetal calf serum (FCS; Gibco®), using standard tissue culture procedures until ~80% confluency is achieved. Day 1, seed 6000 cells/well in 384 well plate and incubate at 37° C., 5% CO2. Add diluted compound by Echo 550, final DMSO is 0.5%, incubate cells at 37° C., 5% CO2 for 3 hours. Then, remove medium and fix cells with 3.7% formaldehyde in PBS (PFA) by Apricot. Wash with PBS once. Permeabilize cells with cold 100% methanol and repeat wash once with PBS once. Add Li-Cor blocking buffer to each well and incubate 1.5 hours at RT. Remove blocking buffer and add primary antibody mixture (rabbit anti pERK, mouse anti GAPDH). Incubate at 4° C. overnight. Day 2, wash with PBST (Tween-20 in PBS) with total 3 times and then add secondary antibody mixture (goat anti rabbit 800CW (1:800 dilution in the combined solution) and goat anti mouse 680RD (1:800 dilution in the combined solution)), incubate for 60 minutes at RT away from light. Repeat washing with PBST 3 times. After final wash, centrifuge plate up-side-down at 1000 rpm to remove wash solution completely from wells. Before plate scanning, clean the bottom plate surface and the Odyssey© Imager scanning bed (if applicable) with moist, lint-free tissue to avoid any obstructions during scanning. Scan plate with detection in both 700 and 800 nm channels.

The target in data set [2] is T1, P-glycoprotein (Pgp, MDR1) (Homo sapiens, UniProt P08183).
T1 construct: expressed in transfected cells; host or cells: MDCK-MDR1 cells
T1 sequence (P08183 whole entry): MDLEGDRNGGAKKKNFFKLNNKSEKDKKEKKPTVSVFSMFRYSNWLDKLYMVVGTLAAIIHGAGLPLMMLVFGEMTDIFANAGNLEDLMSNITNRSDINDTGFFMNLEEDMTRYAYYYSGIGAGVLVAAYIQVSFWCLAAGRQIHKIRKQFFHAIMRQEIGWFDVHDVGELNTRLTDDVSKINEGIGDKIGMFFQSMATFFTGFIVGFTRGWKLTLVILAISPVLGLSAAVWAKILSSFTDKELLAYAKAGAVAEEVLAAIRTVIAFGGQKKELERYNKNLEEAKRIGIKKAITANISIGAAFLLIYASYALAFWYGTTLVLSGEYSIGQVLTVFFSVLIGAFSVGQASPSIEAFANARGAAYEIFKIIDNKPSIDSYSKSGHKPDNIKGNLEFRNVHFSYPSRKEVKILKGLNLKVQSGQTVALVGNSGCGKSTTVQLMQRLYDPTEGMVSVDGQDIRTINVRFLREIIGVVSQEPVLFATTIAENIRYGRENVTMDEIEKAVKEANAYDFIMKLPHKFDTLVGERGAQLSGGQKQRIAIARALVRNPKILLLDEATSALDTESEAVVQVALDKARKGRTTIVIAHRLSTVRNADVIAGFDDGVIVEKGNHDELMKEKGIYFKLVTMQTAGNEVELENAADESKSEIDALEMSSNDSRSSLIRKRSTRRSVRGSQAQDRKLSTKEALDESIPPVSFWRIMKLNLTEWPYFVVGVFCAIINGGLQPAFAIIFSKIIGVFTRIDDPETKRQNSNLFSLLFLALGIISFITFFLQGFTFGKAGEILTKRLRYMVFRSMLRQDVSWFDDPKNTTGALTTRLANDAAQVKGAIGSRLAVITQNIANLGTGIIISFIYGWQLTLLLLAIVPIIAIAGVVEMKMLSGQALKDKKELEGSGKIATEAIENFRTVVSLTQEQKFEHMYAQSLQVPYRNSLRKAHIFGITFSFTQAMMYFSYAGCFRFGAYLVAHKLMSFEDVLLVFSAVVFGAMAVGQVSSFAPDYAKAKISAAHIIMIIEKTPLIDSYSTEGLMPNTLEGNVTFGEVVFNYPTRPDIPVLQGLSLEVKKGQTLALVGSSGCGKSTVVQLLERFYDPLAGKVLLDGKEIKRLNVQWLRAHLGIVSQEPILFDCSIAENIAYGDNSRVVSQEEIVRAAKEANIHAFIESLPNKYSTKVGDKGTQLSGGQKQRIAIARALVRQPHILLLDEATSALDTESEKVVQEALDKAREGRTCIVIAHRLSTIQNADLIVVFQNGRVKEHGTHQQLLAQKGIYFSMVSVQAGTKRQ
The data set is described as follows: MDCK-MDR1 Pgp assessment. Format: in vitro ADME. To be noted: dog, MDCK-MDR1 cells, read-out: Pgp Efflux Ratio (Pexact). Here is the method: Efflux transport mediated by P-glycoprotein (Pgp) was assessed by MDCK-MDR1 cells. The final concentrations of test compounds and control compound were at 1 μM. The multi-well insert plate was incubated at 37 ^9C for 2 hours. In order to reliably measure passive permeability coefficients, Pexact was reported, which automatically corrects for loss of compound.

Regarding `C#Cc1c(F)ccc2cc(O)cc(-c3ncc4c(N5CC6CCC(C5)N6)nc(OC[C@@]56CCCN5C[C@H](F)C6)nc4c3F)c12` [MRTX1133, reference compound], the “Fa*Fg (%)” value in data set [1] (oral dose 30 mpk) is 0.95%.

As a reminder, the IC50 is the concentration that gives 50% inhibition. Read a high IC50 as a need for much substance. With `C#Cc1c(F)ccc2cccc(-c3nc4c5c(nc(=O)n(CC(C)(CO)N(C)C)c5c3F)N3C[C@H]5CC[C@H](N5)[C@H]3[C@H](C)O4)c12` (single isomer, unassigned) [Example 365a], the IC50 in the data set on PANC-1 pERK was found to be 6 nM. The efflux ratio at 2 h, 1 μM in data set [2] came out at 8.4.

In the data set on PANC-1 pERK, `CCc1c(F)ccc2cc(O)cc(-c3nc4c5c(nc(=O)n(CC(C)(CO)N(C)C)c5c3F)N3C[C@H]5CC[C@H](N5)[C@H]3[C@H](C)O4)c12` (single isomer, unassigned) [Example 373a] returned a half-maximal inhibitory concentration (IC50) of 6.4 nM. The efflux ratio at 2 h, 1 μM in data set [2] was 12.5.

Broadly, the bioavailability is the share of a dose that reaches the circulation, judged against a reference dose that is usually intravenous. Low readings indicate poor availability, high ones good availability. With `C#Cc1c(F)ccc2cccc(-c3nc4c5c(nc(=O)n(C[C@@]67CCCN6CC(=C)C7)c5c3F)N3C[C@H]5CC[C@H](N5)[C@H]3[C@H](C)O4)c12` (single isomer, unassigned) [Example 200a], the IC50 with PANC-1 pERK (Homo sapiens, PANC-1, 3 h) was 12 nM. In data set [1] (oral dose 10 mpk), the “Fa*Fg (%)” value worked out at 24%. The same compound returned a bioavailability in data set [1] (mouse, plasma, oral dose 10 mpk) of 15.8%.

`CCc1c(F)ccc2cc(O)cc(-c3nc4c5c(nc(=O)n(C[C@@]67CCCN6C[C@H](F)C7)c5c3F)N3C[C@@]5(C)CC[C@H](N5)[C@H]3[C@H](C)O4)c12` [Example 361, (5S,5aS,6S,9R)-2-(8-ethyl-7-fluoro-3-hydroxynaphthalen-1-yl)-1-fluoro-13-(((2R,7aS)-2-fluorotetrahydro-1H-pyrrolizin-7a(5H)-yl)methyl)-5,9-dimethyl-5a,6,7,8,9,10-hexahydro-5H-4-oxa-3,10a,11,13,14-pentaaza-6,9-methanonaphtho[1,8-ab]heptalen-12(13H)-one] registered an IC50 with PANC-1 pERK (Homo sapiens, PANC-1, 3 h) of 43 nM.

For the compound `C=C1CN2CC(=C)CC2(Cn2c(=O)nc3c4c(nc(-c5cc(O)cc6ccc(F)c(CC)c56)c(F)c42)OC[C@@H]2[C@@H]4CC[C@H](CN32)N4)C1` [Example 47], the IC50 in the data set with PANC-1 pERK (Homo sapiens, PANC-1, 3 h) is 629 nM.

`C#Cc1c(F)ccc2cccc(-c3nc4c5c(nc(=O)n([C@H](C)CN6[C@@H]7CC[C@H]6COC7)c5c3F)N3C[C@H]5CC[C@H](N5)[C@H]3[C@H](C)O4)c12` [Example 341, (5S,5aS,6S,9R)-13-((R)-1-((1R,5S)-3-oxa-8-azabicyclo[3.2.1]octan-8-yl)propan-2-yl)-2-(8-ethynyl-7-fluoronaphthalen-1-yl)-1-fluoro-5-methyl-5a,6,7,8,9,10-hexahydro-5H-4-oxa-3,10a,11,13,14-pentaaza-6,9-methanonaphtho[1,8-ab]heptalen-12(13H)-one]: in the data set on PANC-1 pERK (Homo sapiens, PANC-1, 3 h), the IC50 turned out to be 70 nM. Against the preceding compound, the IC50 is about 9-fold lower.

In the data set with PANC-1 pERK (Homo sapiens, PANC-1, 3 h), `C=C1CN2CCCC2(Cn2c(=O)nc3c4c(nc(-c5cc(O)cc6ccc(F)c(CC)c56)c(F)c42)O[C@@H](C)[C@@H]2[C@@H]4CC[C@H](CN32)N4)C1` (stereo partly drawn) [Example 228] showed an IC50 of 19 nM. Compared with the last compound, the IC50 is about 3.7-fold lower.

The compound `C#Cc1c(F)ccc2cc(O)cc(-c3nc4c5c(nc(=O)n(C[C@@]67CCCN6C[C@H](F)C7)c5c3F)N3C[C@H]5CC[C@H](N5)[C@H]3CO4)c12` [Example 23, (5aS,6S,9R)-2-(8-ethynyl-7-fluoro-3-hydroxynaphthalen-1-yl)-1-fluoro-13-(((2R,7aS)-2-fluorotetrahydro-1H-pyrrolizin-7a(5H)-yl)methyl)-5a,6,7,8,9,10-hexahydro-5H-4-oxa-3,10a,11,13,14-pentaaza-6,9-methanonaphtho[1,8-ab]heptalen-12(13H)-one] came in with an IC50 in the data set with PANC-1 pERK (Homo sapiens) of 96 nM.

Regarding `CCc1c(F)ccc2cc(O)cc(-c3nc4c5c(nc(=O)n(C[C@@]67CCCN6C[C@H](F)C7)c5c3F)N3C[C@H]5CC[C@H](N5)[C@H]3[C@H](C)O4)c12` [Example 227], the IC50 in the data set with PANC-1 pERK (Homo sapiens, PANC-1, 3 h) was found to be 5.2 nM.

For the compound `C#Cc1c(F)ccc2cccc(-c3nc4c5c(nc(=O)n(C(C)[C@H]6CCCN6C)c5c3F)N3C[C@H]5CC[C@H](N5)[C@H]3[C@H](C)O4)c12` (stereo partly drawn) [Example 370, (8S,8aS,9S,12R)-5-(8-ethynyl-7-fluoronaphthalen-1-yl)-4-fluoro-8-methyl-3-(1-((R)-1-methylpyrrolidin-2-yl)ethyl)-8a,9,10,11,12,13-hexahydro-8H-7-oxa-1,3,6,13a,14-pentaaza-9,12-methanonaphtho[1,8-ab]heptalen-2(3H)-one], the midpoint of inhibition with PANC-1 pERK (Homo sapiens, PANC-1, 3 h), the IC50, lay at 271 nM.

In turn, `C#Cc1c(F)ccc2cc(O)cc(-c3c(F)c4c5c(cc(=O)n(C[C@@]67CCCN6C[C@H](F)C7)c5c3F)N3C[C@H]5CC[C@H](N5)[C@H]3CO4)c12` [Example 332, (5aS,6S,9R)-2-(8-ethynyl-7-fluoro-3-hydroxynaphthalen-1-yl)-1,3-difluoro-14-(((2R,7aS)-2-fluorotetrahydro-1H-pyrrolizin-7a(5H)-yl)methyl)-5a,6,7,8,9,10-hexahydro-5H-6,9-epiminoazepino[2′,1′:3,4][1,4] oxazepino[5,6,7-de]quinolin-13(14H)-one] gave an IC50 in the data set on PANC-1 pERK (Homo sapiens, PANC-1, 3 h) of 778 nM.

As to `C#Cc1c(F)ccc2cccc(-c3nc4c5c(nc(=O)n(C[C@@]67CCCN6C[C@H](F)C7)c5c3F)N3C[C@H]5CC[C@H](N5)[C@H]3CO4)c12` [Example 1, (5aS,6S,9R)-2-(8-ethynyl-7-fluoronaphthalen-1-yl)-1-fluoro-13-(((2R,7aS)-2-fluorotetrahydro-1H-pyrrolizin-7a(5H)-yl)methyl)-5a,6,7,8,9,10-hexahydro-5H-4-oxa-3,10a,11,13,14-pentaaza-6,9-methanonaphtho[1,8-ab]heptalen-12(13H)-one], the IC50 in the data set on PANC-1 pERK (Homo sapiens, PANC-1, 3 h) was determined as 386 nM.

Regarding `CCc1c(F)ccc2cc(O)cc(-c3nc4c5c(nc(=O)n(C(C)[C@H]6CCN6C)c5c3F)N3C[C@H]5CC[C@H](N5)[C@H]3[C@H](C)O4)c12` (single isomer, unassigned) [Example 376b], the IC50 with PANC-1 pERK was 133 nM.

The record behind these values is US20260250301A1, “KRAS G12D INHIBITORS AND USES THEREOF” (SUZHOU ZANRONG PHARMA LIMITED, priority 2023, published 2026).
